Data reported in the kinase profiling compilation of Christmann-Franck et al. (2016).

Tests used:
Assay in all cases: radiometric filter-binding kinase assay, Kinase HotSpot
Conditions in all cases: compound 0.5 µM; ATP 10 µM
CLK4 (human) = CLK4 (human) (UniProt Q9HAZ1)
RET (human) = RET (human) (UniProt P07949)
IRAK4 (human) = IRAK4 (human) (UniProt Q9NWZ3)
PRKCG (human) = PRKCG (human) (UniProt P05129)
[1] = test system: PRKCQ (human), Q04759 [P330L]
RPS6KA5 KD2 (human) = RPS6KA5 KD2 (human) (UniProt O75582)
STK25 (human) = STK25 (human) (UniProt O00506)
CAMK2A (human) = CAMK2A (human) (UniProt Q9UQM7)
ERBB2 (human) = ERBB2 (human) (UniProt P04626)
ULK1 (human) = ULK1 (human) (UniProt O75385)
NTRK1 (human) = NTRK1 (human) (UniProt P04629)
CLK1 (human) = CLK1 (human) (UniProt P49759)
MAPKAPK3 (human) = MAPKAPK3 (human) (UniProt Q16644)
RPS6KA4 KD2 (human) = RPS6KA4 KD2 (human) (UniProt O75676)
EPHB3 (human) = EPHB3 (human) (UniProt P54753)
EPHA7 (human) = EPHA7 (human) (UniProt Q15375)
PRKD3 (human) = PRKD3 (human) (UniProt O94806)
MAPKAPK2 (human) = MAPKAPK2 (human) (UniProt P49137)
MAP3K10 (human) = MAP3K10 (human) (UniProt Q02779)
YES1 (human) = YES1 (human) (UniProt P07947)
PRKCB2 (human) = PRKCB2 (human) (UniProt P05771)
MAPK10 (human) = MAPK10 (human) (UniProt P53779)
PTK6 (human) = PTK6 (human) (UniProt Q13882)
CDK2 CCNE1 (human) = CDK2 CCNE1 (human) (UniProt P24941+P24864)
CHUK (human) = CHUK (human) (UniProt O15111)
RPS6KA1 KD1 KD2 (human) = RPS6KA1 KD1 KD2 (human) (UniProt Q15418)
MAP3K7 TAB1 (human) = MAP3K7 TAB1 (human) (UniProt O43318+Q15750)
SRPK1 (human) = SRPK1 (human) (UniProt Q96SB4)
PIM1 (human) = PIM1 (human) (UniProt P11309)
EPHB4 (human) = EPHB4 (human) (UniProt P54760)
RPS6KA6 KD1 KD2 (human) = RPS6KA6 KD1 KD2 (human) (UniProt Q9UK32)
IGF1R (human) = IGF1R (human) (UniProt P08069)
TAOK1 (human) = TAOK1 (human) (UniProt Q7L7X3)
PTK2 (human) = PTK2 (human) (UniProt Q05397)
ADRBK1 (human) = ADRBK1 (human) (UniProt P25098)
PRKCE (human) = PRKCE (human) (UniProt Q02156)
MAP3K8 (human) = MAP3K8 (human) (UniProt P41279)
PASK (human) = PASK (human) (UniProt Q96RG2)
MET (human) = MET (human) (UniProt P08581)
KDR (human) = KDR (human) (UniProt P35968)
MAP4K5 (human) = MAP4K5 (human) (UniProt Q9Y4K4)
AURKB (human) = AURKB (human) (UniProt Q96GD4)

Chain of PTK6 (human) (Q13882 whole entry, looked up): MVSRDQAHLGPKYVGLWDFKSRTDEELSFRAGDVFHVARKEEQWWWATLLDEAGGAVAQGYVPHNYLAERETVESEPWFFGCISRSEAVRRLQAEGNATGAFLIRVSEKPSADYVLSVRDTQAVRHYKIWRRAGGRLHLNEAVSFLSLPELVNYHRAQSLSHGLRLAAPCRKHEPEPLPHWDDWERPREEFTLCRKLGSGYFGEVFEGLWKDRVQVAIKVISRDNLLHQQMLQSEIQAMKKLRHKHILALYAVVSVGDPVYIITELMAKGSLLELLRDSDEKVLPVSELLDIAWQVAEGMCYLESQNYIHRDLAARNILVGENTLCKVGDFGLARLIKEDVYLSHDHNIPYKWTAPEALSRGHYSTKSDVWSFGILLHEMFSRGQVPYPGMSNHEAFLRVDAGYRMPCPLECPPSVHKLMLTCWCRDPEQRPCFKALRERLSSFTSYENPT
Chain of MAP3K10 (human) (Q02779 whole entry, looked up): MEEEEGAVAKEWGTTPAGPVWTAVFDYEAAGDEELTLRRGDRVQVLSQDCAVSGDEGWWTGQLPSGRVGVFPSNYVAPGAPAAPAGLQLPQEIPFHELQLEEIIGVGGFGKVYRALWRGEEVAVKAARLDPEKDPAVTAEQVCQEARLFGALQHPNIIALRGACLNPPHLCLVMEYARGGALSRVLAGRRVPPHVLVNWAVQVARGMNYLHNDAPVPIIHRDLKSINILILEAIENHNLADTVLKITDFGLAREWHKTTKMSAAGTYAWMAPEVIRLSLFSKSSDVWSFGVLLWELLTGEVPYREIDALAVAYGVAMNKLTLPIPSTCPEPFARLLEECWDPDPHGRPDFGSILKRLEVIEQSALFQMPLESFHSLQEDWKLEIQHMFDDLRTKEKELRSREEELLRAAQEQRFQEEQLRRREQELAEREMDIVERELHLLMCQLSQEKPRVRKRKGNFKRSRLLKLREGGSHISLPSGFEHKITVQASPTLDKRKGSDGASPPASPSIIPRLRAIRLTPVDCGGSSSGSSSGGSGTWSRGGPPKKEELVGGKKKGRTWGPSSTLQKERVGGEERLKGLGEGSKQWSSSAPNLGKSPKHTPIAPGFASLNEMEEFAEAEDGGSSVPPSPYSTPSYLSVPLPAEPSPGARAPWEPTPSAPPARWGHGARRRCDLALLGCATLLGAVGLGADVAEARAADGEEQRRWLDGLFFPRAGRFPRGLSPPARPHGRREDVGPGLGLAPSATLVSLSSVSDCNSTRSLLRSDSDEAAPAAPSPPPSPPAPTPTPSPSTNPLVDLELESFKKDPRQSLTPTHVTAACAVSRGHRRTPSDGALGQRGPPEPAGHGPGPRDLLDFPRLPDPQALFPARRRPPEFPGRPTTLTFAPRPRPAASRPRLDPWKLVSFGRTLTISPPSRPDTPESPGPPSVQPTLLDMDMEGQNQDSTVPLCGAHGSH
Chain of STK25 (human) (O00506 whole entry, looked up): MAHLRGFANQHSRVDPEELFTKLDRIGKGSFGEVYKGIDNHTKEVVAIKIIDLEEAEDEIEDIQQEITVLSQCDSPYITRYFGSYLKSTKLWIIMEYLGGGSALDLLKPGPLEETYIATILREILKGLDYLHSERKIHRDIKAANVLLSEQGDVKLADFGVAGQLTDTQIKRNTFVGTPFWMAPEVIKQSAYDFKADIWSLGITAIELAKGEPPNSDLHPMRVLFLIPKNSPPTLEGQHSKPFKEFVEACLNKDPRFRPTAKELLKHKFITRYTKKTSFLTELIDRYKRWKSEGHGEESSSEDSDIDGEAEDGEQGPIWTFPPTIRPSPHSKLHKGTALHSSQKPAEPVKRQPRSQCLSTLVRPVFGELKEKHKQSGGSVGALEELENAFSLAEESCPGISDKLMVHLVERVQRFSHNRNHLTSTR
Chain of MAP4K5 (human) (Q9Y4K4 whole entry, looked up): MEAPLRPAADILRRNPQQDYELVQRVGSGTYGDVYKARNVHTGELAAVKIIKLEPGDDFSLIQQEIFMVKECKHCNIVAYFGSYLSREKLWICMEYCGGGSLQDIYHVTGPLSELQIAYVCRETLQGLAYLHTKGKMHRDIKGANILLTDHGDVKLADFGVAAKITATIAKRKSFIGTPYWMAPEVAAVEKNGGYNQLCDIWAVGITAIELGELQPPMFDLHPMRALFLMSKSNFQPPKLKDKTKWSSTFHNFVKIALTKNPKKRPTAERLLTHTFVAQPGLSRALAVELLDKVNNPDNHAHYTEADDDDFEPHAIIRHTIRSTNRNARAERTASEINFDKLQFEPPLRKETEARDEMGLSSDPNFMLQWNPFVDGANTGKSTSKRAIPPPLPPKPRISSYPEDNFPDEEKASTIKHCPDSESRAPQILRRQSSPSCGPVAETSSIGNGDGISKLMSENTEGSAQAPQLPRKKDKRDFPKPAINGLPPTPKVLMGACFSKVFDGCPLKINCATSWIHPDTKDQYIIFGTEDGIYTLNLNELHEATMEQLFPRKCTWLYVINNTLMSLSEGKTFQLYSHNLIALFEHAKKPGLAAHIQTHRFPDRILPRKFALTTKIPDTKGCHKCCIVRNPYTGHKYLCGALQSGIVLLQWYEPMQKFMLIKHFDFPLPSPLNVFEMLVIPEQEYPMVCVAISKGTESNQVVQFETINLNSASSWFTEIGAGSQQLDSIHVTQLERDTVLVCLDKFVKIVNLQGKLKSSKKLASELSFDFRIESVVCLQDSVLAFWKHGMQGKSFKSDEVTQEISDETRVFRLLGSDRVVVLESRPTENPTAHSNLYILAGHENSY
Chain of RPS6KA4 KD2 (human) (O75676 whole entry, looked up): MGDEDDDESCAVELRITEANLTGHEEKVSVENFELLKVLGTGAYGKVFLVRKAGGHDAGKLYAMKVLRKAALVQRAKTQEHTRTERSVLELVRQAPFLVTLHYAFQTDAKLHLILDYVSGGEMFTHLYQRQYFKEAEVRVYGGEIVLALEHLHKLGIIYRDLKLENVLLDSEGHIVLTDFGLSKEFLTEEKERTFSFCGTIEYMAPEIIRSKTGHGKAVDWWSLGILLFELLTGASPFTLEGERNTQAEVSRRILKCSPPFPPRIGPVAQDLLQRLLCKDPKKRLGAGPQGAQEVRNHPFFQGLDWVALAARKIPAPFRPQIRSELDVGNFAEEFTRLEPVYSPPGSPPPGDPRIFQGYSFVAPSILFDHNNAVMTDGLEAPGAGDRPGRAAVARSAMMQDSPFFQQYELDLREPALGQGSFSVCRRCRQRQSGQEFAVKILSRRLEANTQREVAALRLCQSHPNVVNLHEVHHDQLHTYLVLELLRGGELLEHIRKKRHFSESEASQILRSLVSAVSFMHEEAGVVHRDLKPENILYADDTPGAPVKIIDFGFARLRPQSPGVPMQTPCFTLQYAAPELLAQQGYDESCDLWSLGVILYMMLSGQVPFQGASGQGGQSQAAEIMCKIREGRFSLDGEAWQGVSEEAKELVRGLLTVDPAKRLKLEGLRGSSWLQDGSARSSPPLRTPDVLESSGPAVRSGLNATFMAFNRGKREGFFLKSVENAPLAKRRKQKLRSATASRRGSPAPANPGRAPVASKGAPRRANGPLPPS
Chain of RPS6KA5 KD2 (human) (O75582 whole entry, looked up): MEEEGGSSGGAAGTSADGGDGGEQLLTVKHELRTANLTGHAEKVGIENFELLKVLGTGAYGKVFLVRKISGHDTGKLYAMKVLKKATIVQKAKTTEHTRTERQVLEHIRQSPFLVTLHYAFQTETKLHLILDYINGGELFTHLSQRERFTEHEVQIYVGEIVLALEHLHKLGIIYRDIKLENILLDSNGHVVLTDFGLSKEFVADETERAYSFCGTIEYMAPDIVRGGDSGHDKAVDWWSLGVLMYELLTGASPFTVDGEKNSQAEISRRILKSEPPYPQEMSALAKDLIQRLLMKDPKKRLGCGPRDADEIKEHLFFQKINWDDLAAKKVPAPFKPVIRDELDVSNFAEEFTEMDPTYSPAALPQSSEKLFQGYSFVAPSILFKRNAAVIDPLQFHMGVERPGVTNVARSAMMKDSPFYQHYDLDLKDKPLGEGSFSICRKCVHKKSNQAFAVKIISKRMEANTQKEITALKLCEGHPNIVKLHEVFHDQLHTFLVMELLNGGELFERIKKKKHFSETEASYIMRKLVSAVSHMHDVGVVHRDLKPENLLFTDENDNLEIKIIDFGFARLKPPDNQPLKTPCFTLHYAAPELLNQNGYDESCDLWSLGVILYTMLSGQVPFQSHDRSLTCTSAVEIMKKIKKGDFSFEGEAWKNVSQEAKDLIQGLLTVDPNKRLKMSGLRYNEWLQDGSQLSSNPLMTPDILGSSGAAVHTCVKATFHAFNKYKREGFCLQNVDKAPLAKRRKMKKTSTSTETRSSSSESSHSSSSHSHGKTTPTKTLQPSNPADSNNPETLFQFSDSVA
Chain of NTRK1 (human) (P04629 whole entry, looked up): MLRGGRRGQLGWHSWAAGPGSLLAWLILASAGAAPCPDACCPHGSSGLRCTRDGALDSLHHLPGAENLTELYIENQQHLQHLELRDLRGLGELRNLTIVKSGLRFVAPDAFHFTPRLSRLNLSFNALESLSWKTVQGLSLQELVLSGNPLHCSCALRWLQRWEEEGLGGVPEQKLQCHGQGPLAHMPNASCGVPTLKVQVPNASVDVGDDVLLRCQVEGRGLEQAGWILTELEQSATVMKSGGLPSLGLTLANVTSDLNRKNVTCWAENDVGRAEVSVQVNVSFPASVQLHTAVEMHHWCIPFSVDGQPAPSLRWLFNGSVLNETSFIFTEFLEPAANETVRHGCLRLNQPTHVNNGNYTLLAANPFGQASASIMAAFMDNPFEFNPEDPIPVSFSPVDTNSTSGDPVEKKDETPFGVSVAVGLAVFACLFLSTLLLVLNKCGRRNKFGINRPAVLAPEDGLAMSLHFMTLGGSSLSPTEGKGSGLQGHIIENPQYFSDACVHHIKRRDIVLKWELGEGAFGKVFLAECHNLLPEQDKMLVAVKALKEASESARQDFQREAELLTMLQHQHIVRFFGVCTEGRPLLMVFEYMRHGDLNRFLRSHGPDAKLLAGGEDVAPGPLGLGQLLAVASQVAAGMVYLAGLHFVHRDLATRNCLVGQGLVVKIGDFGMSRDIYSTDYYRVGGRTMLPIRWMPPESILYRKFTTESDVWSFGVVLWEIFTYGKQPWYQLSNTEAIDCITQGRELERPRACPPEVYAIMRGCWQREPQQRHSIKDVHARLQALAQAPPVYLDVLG

SMILES: c1ccc2c(-c3ccncc3)c[nH]c2c1
- residual activity (CLK4 (human)): 101%
- residual activity (RET (human)): 97.3%
- residual activity (IRAK4 (human)): 109%
- residual activity (PRKCG (human)): 99.4%
- residual activity [1]: 125%
- residual activity (RPS6KA5 KD2 (human)): 96.7%
- residual activity (STK25 (human)): 117%
- residual activity (CAMK2A (human)): 104%
- residual activity (ERBB2 (human)): 95.6%
- residual activity (ULK1 (human)): 83.8%
- residual activity (NTRK1 (human)): 97%
- residual activity (CLK1 (human)): 105%
- residual activity (MAPKAPK3 (human)): 97.8%
- residual activity (RPS6KA4 KD2 (human)): 91%
- residual activity (EPHB3 (human)): 100%
- residual activity (EPHA7 (human)): 98.2%
- residual activity (PRKD3 (human)): 90.7%
- residual activity (MAPKAPK2 (human)): 101%
- residual activity (MAP3K10 (human)): 101%
- residual activity (YES1 (human)): 97.1%
- residual activity (PRKCB2 (human)): 89.5%
- residual activity (MAPK10 (human)): 102%
- residual activity (PTK6 (human)): 85.5%
- residual activity (CDK2 CCNE1 (human)): 91.7%
- residual activity (CHUK (human)): 107%
- residual activity (RPS6KA1 KD1 KD2 (human)): 93.8%
- residual activity (MAP3K7 TAB1 (human)): 95.5%
- residual activity (SRPK1 (human)): 108%
- residual activity (PIM1 (human)): 93.5%
- residual activity (EPHB4 (human)): 89.7%
- residual activity (RPS6KA6 KD1 KD2 (human)): 112%
- residual activity (IGF1R (human)): 105%
- residual activity (TAOK1 (human)): 88.4%
- residual activity (PTK2 (human)): 97.7%
- residual activity (ADRBK1 (human)): 97.7%
- residual activity (PRKCE (human)): 81.5%
- residual activity (MAP3K8 (human)): 99%
- residual activity (PASK (human)): 101%
- residual activity (MET (human)): 91.4%
- residual activity (KDR (human)): 94.2%
- residual activity (MAP4K5 (human)): 106%
- residual activity (AURKB (human)): 95.9%
